The supplement of paper PMC8612539
In brackets after ≈: the same amount, converted by molar mass.

Columns and labels:
Mannheimia haemolytica = experiment: minimum inhibitory concentration (MIC)
Method: (§1)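 Broth microdilution MIC (Sensititre BOPO7F bovine plate, CLSI methods) of 19 antimicrobials against field isolates of P. multocida, M. haemolytica, H. somni (deep nasopharyngeal swabs) and E. coli, Enterococcus spp. (rectal swabs) from weaned dairy heifers. Incubation 16-24 h at 35 C. MIC is the lowest concentration preventing visible growth. Values with <= or > lie at the tested range limits. Trimethoprim-sulfamethoxazole is given as the trimethoprim component of a 1:19 mixture.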

Enterococcus spp. = experiment: minimum inhibitory concentration (MIC)
Method: as §1

CCCN1C[C@H](C)[C@@H](O)[C@](C)(O)[C@@H](CC)OC(=O)[C@H](C)[C@@H](O[C@H]2C[C@@](C)(OC)[C@@H](O)[C@H](C)O2)[C@H](C)[C@@H](O[C@@H]2O[C@H](C)C[C@H](N(C)C)[C@H]2O)[C@](C)(O)C[C@H]1C [Gamithromycin]
minimum inhibitory concentration [µg/mL]
Conditions	Enterococcus spp.	Mannheimia haemolytica
isolate (source animal id): 2	≤ 1	–
isolate (source animal id): 35	> 8	–
isolate (source animal id): 42	≤ 1	–
isolate (source animal id): 44	2 (≈ 2.57 µM)	–
isolate (source animal id): 79	2 (≈ 2.57 µM)	–
isolate (source animal id): 88	≤ 1	–
isolate (source animal id): 91	≤ 1	–
isolate (source animal id): 92	2 (≈ 2.57 µM)	–
isolate (source animal id): 111	≤ 1	–
isolate (source animal id): 122	> 8	–
isolate (source animal id): 123	≤ 1	–
isolate (source animal id): 133	≤ 1	–
isolate (source animal id): 158	> 8	–
isolate (source animal id): 168	≤ 1	–
isolate (source animal id): 169	≤ 1	–
isolate (source animal id): 171	≤ 1	–
isolate (source animal id): 175	> 8	–
isolate (source animal id): 177	≤ 1	–
isolate (source animal id): 181	≤ 1	–
isolate (source animal id): 182	≤ 1	–
isolate (source animal id): 183	2 (≈ 2.57 µM)	–
isolate (source animal id): 187	≤ 1	–
isolate (source animal id): 190	≤ 1	–
isolate (source animal id): 194	≤ 1	–
isolate (source animal id): 195	≤ 1	–
isolate (source animal id): 197	≤ 1	–
isolate (source animal id): 211	≤ 1	–
isolate (source animal id): 214	4 (≈ 5.15 µM)	–
isolate (source animal id): 222	≤ 1	–
isolate (source animal id): 223	≤ 1	–
isolate (source animal id): 228	8 (≈ 10.3 µM)	–
isolate (source animal id): 230	8 (≈ 10.3 µM)	–
isolate (source animal id): 235	> 8	–
isolate (source animal id): 236	≤ 1	–
isolate (source animal id): 239	4 (≈ 5.15 µM)	–
isolate (source animal id): 241	> 8	–
isolate (source animal id): 244	≤ 1	–
isolate (source animal id): 246	≤ 1	–
isolate (source animal id): 247	> 8	–
isolate (source animal id): 250	≤ 1	–
isolate (source animal id): 252	> 8	–
isolate (source animal id): 268	> 8	–
isolate (source animal id): 282	≤ 1	–
isolate (source animal id): 285	> 8	–
isolate (source animal id): 288	–	≤ 1
isolate (source animal id): 289	≤ 1	–
isolate (source animal id): 290	≤ 1	–
isolate (source animal id): 291	–	≤ 1
isolate (source animal id): 293	–	8 (≈ 10.3 µM)
isolate (source animal id): 296	≤ 1	–
isolate (source animal id): 298	≤ 1	> 8
isolate (source animal id): 299	–	> 8
isolate (source animal id): 300	–	≤ 1
isolate (source animal id): 301	≤ 1	–
isolate (source animal id): 302	–	> 8
isolate (source animal id): 304	–	> 8
isolate (source animal id): 306	–	≤ 1
isolate (source animal id): 308	–	≤ 1
isolate (source animal id): 309	–	≤ 1
isolate (source animal id): 310	> 8	–
isolate (source animal id): 313	–	> 8
isolate (source animal id): 318	–	8 (≈ 10.3 µM)
isolate (source animal id): 320	≤ 1	≤ 1
isolate (source animal id): 321	–	> 8
isolate (source animal id): 323	–	> 8
isolate (source animal id): 324	–	8 (≈ 10.3 µM)
isolate (source animal id): 326	–	> 8
isolate (source animal id): 328	–	> 8
isolate (source animal id): 329	–	> 8
isolate (source animal id): 331	≤ 1	–
isolate (source animal id): 333	≤ 1	> 8
isolate (source animal id): 335	–	8 (≈ 10.3 µM)
isolate (source animal id): 338	–	8 (≈ 10.3 µM)
isolate (source animal id): 341	> 8	–
